Reference: ChEMBL document CHEMBL1141717, “New functionalized 1,2,4-trioxepanes: synthesis and antimalarial activity against multi-drug resistant P. yoelii in mice” (2008)
Active and inactive are the calls of the source. The rule behind the calls is not given here.

Tests used:
[1] = tested on: Plasmodium yoelii nigeriensis; assay: Antimalarial activity as reduced parasitaemia against multidrug-resistant Plasmodium yoelii nigeriensis infected Swiss mice (Mus musculus) at 96mg/kg peroral dose at day 4; type: functional; set-up: scale not given: the % may be the effect or the level left
[2] = tested on: Plasmodium yoelii nigeriensis; assay: Antimalarial activity as reduced parasitaemia against multidrug-resistant Plasmodium yoelii nigeriensis infected Swiss mice (Mus musculus) at 96 mg/kg intramuscular dose at day 4; type: functional; set-up: scale not given: the % may be the effect or the level left
[3] = tested on: Plasmodium yoelii nigeriensis; assay: Antimalarial activity as survivor numbers against multidrug-resistant Plasmodium yoelii nigeriensis infected Swiss mice (Mus musculus) at 96 mg/kg intramuscular dose at day 28; type: functional, organism-based; set-up: dose 96 mg/kg
[4] = tested on: Plasmodium yoelii nigeriensis; assay: Antimalarial activity as survivor numbers against multidrug-resistant Plasmodium yoelii nigeriensis infected Swiss mice (Mus musculus) at 96 mg/kg peroral dose at day 28; type: functional, organism-based; set-up: dose 96 mg/kg
[5] = tested on: Plasmodium yoelii nigeriensis; assay: Antimalarial activity as reduced parasitaemia against multidrug-resistant Plasmodium yoelii nigeriensis infected Swiss mice (Mus musculus) at 96 mg/kg peroral dose at day 28; type: functional; set-up: scale not given: the % may be the effect or the level left; conditions: route oral
[6] = tested on: Plasmodium yoelii nigeriensis; assay: Antimalarial activity as reduced parasitaemia against multidrug-resistant Plasmodium yoelii nigeriensis infected Swiss mice (Mus musculus) at 48 mg/kg peroral dose at day 4; type: functional; set-up: scale not given: the % may be the effect or the level left; conditions: route oral
[7] = tested on: Plasmodium yoelii nigeriensis; assay: Antimalarial activity as survivor numbers against multidrug-resistant Plasmodium yoelii nigeriensis infected Swiss mice (Mus musculus) at 48 mg/kg peroral dose at day 28; type: functional, organism-based; set-up: dose 48 mg/kg

Structure (SMILES)	Activity [1]	Activity [2]	Activity [3]	Activity [4]	Activity [5]	Activity [6]	Activity [7]
C=C(c1ccc(-c2ccccc2)cc1)C1CCOC2(CCC(Nc3ccc(C(F)(F)F)cc3)CC2)OO1 (mixture of isomers)	68.3%	75.84%	inactive	inactive	–	–	–
C=C(c1ccccc1)C1CCOC2(CCC(=CC(=O)OCC)CC2)OO1 (mixture of isomers)	88.76%	43.58%	inactive	inactive	–	–	–
C=C(c1ccc(-c2ccccc2)cc1)C1CCOC2(CCC(=CC(=O)OCC)CC2)OO1 (mixture of isomers)	95.18%	35.32%	inactive	inactive	–	–	–
C=C(c1ccccc1)C1CCOC2(CCC(Nc3ccccc3)CC2)OO1 (mixture of isomers)	78.58%	75.47%	inactive	inactive	–	–	–
C=C(c1ccccc1)C1CCOC2(CCC(Nc3ccc(F)cc3)CC2)OO1 (mixture of isomers)	63.18%	50%	inactive	inactive	–	–	–
C=C(c1ccc(Cl)cc1)C1CCOC2(CCC(Nc3ccccc3)CC2)OO1 (mixture of isomers)	98.49%	32.07%	inactive	inactive	–	–	–
C=C(c1ccc(Cl)cc1)C1CCOC2(CCC(Nc3ccc(F)cc3)CC2)OO1 (mixture of isomers)	41.51%	58.37%	inactive	inactive	–	–	–
C=C(c1ccc(-c2ccccc2)cc1)C1CCOC2(CCC(Nc3ccccc3)CC2)OO1 (mixture of isomers)	100%	99.01%	inactive	–	75%	–	–
C=C(c1ccc(-c2ccccc2)cc1)C1CCOC2(CCC(Nc3ccc(F)cc3)CC2)OO1 (mixture of isomers)	98.08%	57.69%	inactive	inactive	–	–	–
C=C(c1ccc(Cl)cc1)C1CCOC2(CCC(=CC(=O)OCC)CC2)OO1 (mixture of isomers)	85.87%	41.11%	inactive	inactive	–	–	–
C=C(c1ccc(Cl)cc1)C1CCOC2(CCC(Nc3ccc(C(F)(F)F)cc3)CC2)OO1 (mixture of isomers)	87.17%	73.36%	inactive	inactive	–	–	–
C=C(c1ccccc1)C1CCOC2(CCC(Nc3ccc(C(F)(F)F)cc3)CC2)OO1 (mixture of isomers)	100%	24.32%	inactive	–	40%	–	–
CCO[C@H]1O[C@@H]2O[C@@]3(C)CC[C@H]4[C@H](C)CC[C@@H]([C@H]1C)[C@@]24OO3 [ARTEMOTIL]	–	–	–	–	–	100%	Active
